The results in this text go back to ChEMBL document CHEMBL5331122, “Structure-Activity Relationship Study of Antimicrobial Peptide PE2 Delivered Novel Linear Derivatives with Potential of Eradicating Biofilms and Low Incidence of Drug Resistance” (J Med Chem, 2023).

≈ marks a conversion by molar mass, not a printed value.

In one data set the test system is Escherichia coli. As to the kind of experiment: Antibacterial activity against Escherichia coli ATCC 25922 assessed as bacterial growth inhibition incubated for 18 hrs by broth microdilution method. It is filed as functional. For orientation: Dilution methods test growth across graded concentrations, often in twofold steps.
A further data set concerns Enterococcus faecalis. Description: Antibacterial activity against Enterococcus faecalis ATCC 29212 assessed as bacterial growth inhibition incubated for 18 hrs by broth microdilution method. It counts as functional.
A further data set relates to Bacillus subtilis. As to the kind of experiment: Antibacterial activity against Bacillus subtilis ATCC 23857 assessed as bacterial growth inhibition incubated for 18 hrs by broth microdilution method. It is filed as functional.
Another data set deals with Klebsiella pneumoniae. Description: Antibacterial activity against Klebsiella pneumoniae ATCC 700603 assessed as bacterial growth inhibition incubated for 18 hrs by broth microdilution method. It is filed as functional.
A further data set relates to Pseudomonas aeruginosa. Description: Antibacterial activity against Pseudomonas aeruginosa ATCC 27853 assessed as bacterial growth inhibition incubated for 18 hrs by broth microdilution method. It counts as functional.
In a further data set the test system is Staphylococcus aureus. As to the kind of experiment: Antibacterial activity against Staphylococcus aureus ATCC 25923 assessed as bacterial growth inhibition incubated for 18 hrs by broth microdilution method. It is filed as functional.
In a further data set the test system is Erythrocyte. Description: Hemolytic activity in mouse red blood cell assessed as hemolysis incubated for 1 hr. The following applies: dose 4-256 µg/ml. It is filed as toxicity, cell-based.

For orientation: MIC means the smallest concentration in the dilution series that meets the test's criterion for growth inhibition. In the case of `NC[C@H]1O[C@H](O[C@H]2[C@H](O)[C@@H](O[C@H]3O[C@H](CO)[C@@H](O)[C@H](N)[C@H]3O)[C@H](N)C[C@@H]2N)[C@H](O)[C@@H](O)[C@@H]1O` [KANAMYCIN], the MIC was 4 µg/mL (≈ 8.26 µM) in the data set on Escherichia coli; 16 µg/mL (≈ 33 µM) with Enterococcus faecalis; below 1 µg/mL with Bacillus subtilis; 32 µg/mL (≈ 66 µM) with Klebsiella pneumoniae; above 128 µg/mL in the data set on Pseudomonas aeruginosa; below 1 µg/mL with Staphylococcus aureus.
For `CCCCCCCCCC(=O)N[C@@H](CCN)C(=O)N[C@H](C(=O)N[C@@H](CCN)C(=O)N[C@H](Cc1ccccc1)C(=O)N[C@@H](CC(C)C)C(=O)N[C@@H](CCN)C(=O)N[C@@H](C(=O)N[C@@H](CC(C)C)C(=O)N[C@H](C(N)=O)[C@@H](C)O)C(C)C)[C@@H](C)CC`, the MIC was 4 µg/mL (≈ 3.45 µM) with Escherichia coli; 8 µg/mL (≈ 6.91 µM) in the data set with Enterococcus faecalis; 4 µg/mL (≈ 3.45 µM) with Bacillus subtilis; 4 µg/mL (≈ 3.45 µM) with Klebsiella pneumoniae; 4 µg/mL (≈ 3.45 µM) with Pseudomonas aeruginosa; 4 µg/mL (≈ 3.45 µM) in the data set on Staphylococcus aureus. For the same molecule, the HC10 in the data set with Erythrocyte came out at 32 µg/mL.
For the molecule `CCCCCCC(=O)N[C@@H](CCN)C(=O)N[C@H](C(=O)N[C@@H](CCN)C(=O)N[C@H](Cc1ccccc1)C(=O)N[C@@H](CC(C)C)C(=O)N[C@@H](CCN)C(=O)N[C@@H](C(=O)N[C@@H](CC(C)C)C(=O)N[C@H](C(N)=O)[C@@H](C)O)C(C)C)[C@@H](C)CC`, the MIC stood at 4 µg/mL (≈ 3.58 µM) in the data set with Escherichia coli; 64 µg/mL (≈ 57.3 µM) with Enterococcus faecalis; 4 µg/mL (≈ 3.58 µM) in the data set with Bacillus subtilis; 8 µg/mL (≈ 7.17 µM) in the data set with Klebsiella pneumoniae; 16 µg/mL (≈ 14.3 µM) in the data set on Pseudomonas aeruginosa; 16 µg/mL (≈ 14.3 µM) in the data set with Staphylococcus aureus. Further, the HC10 in the data set with Erythrocyte came to 256 µg/mL.
Consider `CCCCCCCCC(=O)N[C@@H](CCN)C(=O)N[C@H](C(=O)N[C@@H](CCN)C(=O)N[C@H](Cc1ccccc1)C(=O)N[C@@H](CC(C)C)C(=O)N[C@@H](CCN)C(=O)N[C@@H](C(=O)N[C@@H](CC(C)C)C(=O)N[C@H](C(N)=O)[C@@H](C)O)C(C)C)[C@@H](C)CC`, for which the MIC was determined as 4 µg/mL (≈ 3.49 µM) with Escherichia coli; 8 µg/mL (≈ 6.99 µM) with Enterococcus faecalis; 4 µg/mL (≈ 3.49 µM) in the data set on Bacillus subtilis; 8 µg/mL (≈ 6.99 µM) with Klebsiella pneumoniae; 8 µg/mL (≈ 6.99 µM) in the data set with Pseudomonas aeruginosa; 8 µg/mL (≈ 6.99 µM) in the data set with Staphylococcus aureus. The HC10 in the data set with Erythrocyte worked out at 64 µg/mL.
For `CCCCCCCCCCCC(=O)N[C@@H](CCN)C(=O)N[C@H](C(=O)N[C@@H](CCN)C(=O)N[C@H](Cc1ccccc1)C(=O)N[C@@H](CC(C)C)C(=O)N[C@@H](CCN)C(=O)N[C@@H](C(=O)N[C@@H](CC(C)C)C(=O)N[C@H](C(N)=O)[C@@H](C)O)C(C)C)[C@@H](C)CC`, the MIC in the data set on Escherichia coli is 4 µg/mL (≈ 3.37 µM); in the data set on Enterococcus faecalis, 4 µg/mL (≈ 3.37 µM); in the data set on Bacillus subtilis, 8 µg/mL (≈ 6.74 µM); in the data set on Klebsiella pneumoniae it was 8 µg/mL (≈ 6.74 µM); in the data set with Pseudomonas aeruginosa it was 8 µg/mL (≈ 6.74 µM); with Staphylococcus aureus, 16 µg/mL (≈ 13.5 µM). Also, the HC10 in the data set on Erythrocyte amounted to 8 µg/mL.
Consider `CCCCCCCC(=O)N[C@@H](CCN)C(=O)N[C@H](C(=O)N[C@@H](CCN)C(=O)N[C@H](Cc1ccccc1)C(=O)N[C@@H](CC(C)C)C(=O)N[C@@H](CCN)C(=O)N[C@@H](C(=O)N[C@@H](CC(C)C)C(=O)N[C@H](C(N)=O)[C@@H](C)O)C(C)C)[C@@H](C)CC`, for which the MIC in the data set on Escherichia coli was determined as 4 µg/mL (≈ 3.54 µM); in the data set with Enterococcus faecalis, 16 µg/mL (≈ 14.2 µM); with Bacillus subtilis it was 4 µg/mL (≈ 3.54 µM); in the data set with Klebsiella pneumoniae, 8 µg/mL (≈ 7.08 µM); in the data set with Pseudomonas aeruginosa, 8 µg/mL (≈ 7.08 µM); in the data set on Staphylococcus aureus it was 8 µg/mL (≈ 7.08 µM). For the same molecule, in the data set on Erythrocyte, the HC10 stood at 128 µg/mL.
As for `CN[C@H](CC(C)C)C(=O)N[C@H]1C(=O)N[C@@H](CC(N)=O)C(=O)N[C@H]2C(=O)N[C@H]3C(=O)N[C@H](C(=O)N[C@H](C(=O)O)c4cc(O)cc(O)c4-c4cc3ccc4O)[C@H](O)c3ccc(c(Cl)c3)Oc3cc2cc(c3O[C@@H]2O[C@H](CO)[C@@H](O)[C@H](O)[C@H]2O[C@H]2C[C@](C)(N)[C@H](O)[C@H](C)O2)Oc2ccc(cc2Cl)[C@H]1O` [VANCOMYCIN], the MIC with Escherichia coli is 128 µg/mL (≈ 88.3 µM); in the data set on Bacillus subtilis, below 1 µg/mL; in the data set on Klebsiella pneumoniae, above 128 µg/mL; in the data set on Pseudomonas aeruginosa, above 128 µg/mL.
